Each structure is given as a SMILES string.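 Results reflect a 48-hour exposure of cells in 96-well plates to compound at five concentrations. GI50 marks 50% less growth.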 Activity calls are given as the source filed them. Rule as the data show it: active = GI50 up to about 1.1 µM and inactive = higher.

Among the test systems are SF-295; SK-MEL-2; KM12; DU-145; SNB-75; LXFL 529; M19-MEL; U-251; MOLT-4; SN12C; SW-620; OVCAR-8; EKVX; SNB-19; OVCAR-3; NCI-H460; MDA-MB-231; UACC-62; NCI/ADR-RES; HCT-15.
Holding throughout (experiment): NCI-60 cell line screen, 48 h

For the compound `Cc1ccc2c(ccc(/C=C/c3ccc(O)c4ncccc34)[n+]2C)c1`, the GI50 in the assay with SF-295 is 13.8 µM (inactive); with SK-MEL-2 it was 17.3 µM (inactive); with KM12 it was 9.08 µM (inactive); in the assay on DU-145, > 32.1 µM (inactive); in the assay on SNB-75, 19.5 µM (inactive); in the assay with LXFL 529, 1.16 µM (inactive). Besides, the GI50 with M19-MEL was 6.08 µM (inactive); with U-251, 6.62 µM (inactive); in the assay on MOLT-4 it was 1.75 µM (inactive); with SN12C it was 12.1 µM (inactive); in the assay with SW-620, 4.65 µM (inactive); in the assay with OVCAR-8, 2.38 µM (inactive). The GI50 was 18.1 µM (inactive) in the assay on EKVX; 12.9 µM (inactive) with SNB-19; 0.817 µM (active) in the assay with OVCAR-3; 2.87 µM (inactive) in the assay with NCI-H460; > 33.2 µM (inactive) with MDA-MB-231; 8.04 µM (inactive) in the assay with UACC-62. Also, the GI50 with NCI/ADR-RES is > 49.5 µM (inactive); with HCT-15, 16.1 µM.
On to `Cc1[nH]c(=O)nc(N/N=C/c2ccc(Cl)cc2)c1C(=O)Nc1ccc(Cl)cc1`, for which the GI50 is 20.6 µM (inactive) with SF-295; 76.6 µM (inactive) in the assay on SK-MEL-2; 32.9 µM (inactive) in the assay on KM12; > 100 µM (inactive) with DU-145; 6.05 µM (inactive) with SNB-75; 23 µM (inactive) in the assay on LXFL 529. In addition, the GI50 was 16.1 µM (inactive) in the assay on M19-MEL; 14.5 µM (inactive) in the assay on U-251; 45.5 µM (inactive) in the assay on MOLT-4; 35.6 µM (inactive) with SN12C; 16.6 µM (inactive) in the assay with SW-620; 10.2 µM (inactive) in the assay with OVCAR-8. Further, the GI50 was > 86.5 µM (inactive) with EKVX; 7.41 µM (inactive) with SNB-19; 8.97 µM (inactive) in the assay with OVCAR-3; 10.4 µM (inactive) in the assay on NCI-H460; 9.2 µM (inactive) with MDA-MB-231; 47.3 µM (inactive) in the assay on UACC-62. The values for the GI50 in the assay on NCI/ADR-RES and in the assay with HCT-15 were 34.1 µM (inactive) and 38.5 µM, respectively.
Turning to `O=C1C=CC(=O)c2c(O)ccc(O)c21` [NAPHTHAZALIN], the GI50 with SF-295 was 7.91 µM (inactive); in the assay on SK-MEL-2, 7.64 µM (inactive); in the assay with KM12, 5.25 µM (inactive); in the assay with DU-145 it was 14.8 µM (inactive); in the assay on SNB-75, 2.09 µM (inactive); in the assay with LXFL 529, 0.535 µM (active). Moreover, the GI50 in the assay with M19-MEL is 0.491 µM (active); in the assay with U-251, 5.79 µM (inactive); in the assay on MOLT-4, 0.15 µM (active); in the assay with SN12C it was 1.33 µM (inactive); with SW-620, 0.377 µM (active); with OVCAR-8, 0.91 µM (active). Moreover, the GI50 in the assay on EKVX was 2.75 µM (inactive); in the assay with SNB-19, 8.41 µM (inactive); with OVCAR-3, 2.09 µM (inactive); in the assay with NCI-H460, 2.47 µM (inactive); with MDA-MB-231 it was 2.22 µM (inactive); with UACC-62 it was 1.48 µM (inactive). For the same compound, the GI50 in the assay with NCI/ADR-RES is 1.92 µM (inactive); in the assay with HCT-15, 0.753 µM.

These data come from ChEMBL document CHEMBL1201862, “PubChem BioAssay data set” (2004).
